{"source": "patent US5846980A", "about": "“N-(benzhydryloxyalkyl)-4-(carboxy/carbamoyl methyl)-piperidine derivatives as antidepressants” (Cooperation Pharmaceutique Francaise, priority 1994, dated 1998)", "origin": "cited, not measured here", "key": {"[1]": {"test_system": "sleep induced by phenobarbital", "details": "in vivo"}, "[2]": {"test_system": "motor activity of the animals", "details": "in vivo"}, "stereotypic behaviors": {"test_system": "stereotypic behaviors", "details": "in vivo"}, "[3]": {"test_system": "immobility time of the mouse"}, "[4]": {"test_system": "ptosis and hypothermia induced by reserpine", "details": "in vivo"}}}
{"compound": "CN1Cc2c(N)cccc2C(c2ccccc2)C1", "note": "(stereo not drawn) [1,2,3,4-tetrahydro-2-methyl-4-phenyl-8-isoquinolinamine]", "values": [{"measurement": "antidepressant activity in human clinical studies", "setting": "antidepressant activity", "result": "this effect is demonstrated in human clinical studies"}]}
{"compound": "1-[2-(Diphenylmethoxy)ethyl]-4-(3-phenylpropenyl)piperazine", "values": [{"measurement": "sleep induced by phenobarbital", "setting": "[1]", "result": "decreases the sleep induced by phenobarbital"}, {"measurement": "motor activity of the animals", "setting": "[2]", "result": "increases the motor activity of the animals"}, {"measurement": "stereotypic behaviors", "setting": "stereotypic behaviors", "result": "induces stereotypic behaviors"}, {"measurement": "immobility time in the behavioral despair test", "setting": "[3]", "result": "decreases the immobility time of the mouse"}, {"measurement": "antagonism of the hypothermia induced by reserpine", "setting": "[4]", "result": "antagonizes neither the ptosis nor the hypothermia induced by reserpine"}, {"measurement": "antagonism of the ptosis induced by reserpine", "setting": "[4]", "result": "antagonizes neither the ptosis nor the hypothermia induced by reserpine"}]}
{"compound": "c1ccc2sc(C3(N4CCCCC4)CCCCC3)cc2c1", "note": "[1-[1-(2-Benzo[b]thiophenyl)cyclohexyl]piperidine]", "values": [{"measurement": "inhibition of dopamine re-uptake", "setting": "dopamine re-uptake", "result": "inhibit dopamine and noradrenaline re-uptake"}, {"measurement": "inhibition of noradrenaline re-uptake", "setting": "noradrenaline re-uptake", "result": "inhibit dopamine and noradrenaline re-uptake"}]}
